According to patent US20250289785A1, “INDOLE DERIVATIVE, METHOD FOR PREPARING SAME, AND USE THEREOF” (MITOIMMUNE THERAPEUTICS INC., priority 2021, published 2025):

Tests used:
H9C2 cells [1] = experiment: Cell protection effect against t-BHP in heart cells (LDH release); format: cell-based; conditions: H9C2, t-BHP 40 μM, 2 hours
Procedure: In order to identify the protective effect with regard to heart cells, H9C2 cells were divided into 96-well plates by 1.5×10^4, and cultured for 24 hours. The respective wells were treated with compounds of the examples 3× serial diluted to final concentrations of […], then cultured for 15 to 20 minutes. After treating with t-BHP with a final concentration of 40 μM, culturing was performed for 2 hours. In order to identify the protective effect of each compound, a Cytotoxicity LDH assay kit [Dojindo; CK12] was used to measure the degree of extracellular secretion of LDH. To describe briefly, at the time point 2-hour treatment of the cells with t-BHIP was completed, 100 μL each of the supernatant in which the cells were placed was collected and moved to a new 96-well plate. 100 μL/well of the assay buffer included in the kit (same amount as the sample) was added, followed by wrapping with foil and reacting for 30 minutes at room temperature. Observing the change in color of the sample, 50 μL/well of stop solution was added, then an iD3 spectrometer was used to measure absorbance at 490 nm and calculate the EC50 values. The EC50 of the compounds of the examples is preferably no more than 1.0 μM, and more preferably no more than 0.3 μM.

NIH/3T3 cells = experiment: Cell death protective effect in fibroblasts against Erastin, glutamate and RSL3 (LDH); format: cell-based, mouse; conditions: 24 h
Procedure: (§1) In order to identify the protective effect on fibroblasts, NIH/3T3 cells were divided into 96-well plates by 8×10^3 and cultured for 18 to 24 hours. The compounds of Examples were diluted to final concentrations of 0.1 and 1 μM, treated in each well, and incubated for 15 to 20 minutes. Erastin, glutamate, and RSL3 were treated to have final concentrations of 3 μM, 30 mM, and 3 μM, respectively, and cultured for 24 hours. In order to identify the protective effect of each compound, the degree of LDH extracellular secretion was measured using cytotoxicity LDH assay kit [Dojindo; CK12]. Briefly, at the time when the treatment of the cells with Erastin, glutamate, and RSL3 for 24 hours is completed, the supernatants containing the cells are taken by 70 μL and transferred to a new 96-well plate. The assay buffer included in the kit is added in an amount of 70 μL/well (the same amount as the sample) thereto, and then the plate is wrapped with a foil and the reaction is performed at room temperature for 15 minutes.

H9C2 cells [2] = experiment: Cell death protective effect in cardiac myocytes against Erastin, glutamate and RSL3 (LDH); format: cell-based, white mouse; conditions: 24 h
Procedure: as §1, with “on cardiac cells, H9C2” for “on fibroblasts, NIH/3T3”, “by 1×10^4” for “by 8×10^3”, “and 1.0” for “and 1”, “of 1” for “of 3”, “μM, 25” for “μM, 30”, “and 0.5” for “and 3”

ARPE-19 cells = experiment: Cell death protective effect in retinal epithelial cells against Erastin and RSL3 (LDH); format: cell-based, human; conditions: 24 h
Procedure: In order to identify the protective effect on retinal epithelial cells, ARPE-19 cells were divided into 96-well plates by 1×10^4 and cultured for 18 to 24 hours. The compounds of Examples were diluted to final concentrations of 0.03 and 0.3 μM, treated in each well, and incubated for 20 minutes. Erastin, and RSL3 were treated to have final concentrations of 10 μM, and 0.3 μM, respectively, and cultured for 24 hours. In order to identify the protective effect of each compound, the degree of LDH extracellular secretion was measured using cytotoxicity LDH assay kit [Dojindo; CK12]. Briefly, at the time when the treatment of the cells with Erastin, and RSL3 for 24 hours is completed, the supernatants containing the cells are taken by 70 μL and transferred to a new 96-well plate. The assay buffer included in the kit is added in an amount of 70 μL/well (the same amount as the sample) thereto, and then the plate is wrapped with a foil and the reaction is performed at room temperature for 15 minutes.

MLE-12 cells = experiment: Cell death protective effect in lung epithelial cells against RSL3 (LDH); format: cell-based, rat; conditions: MLE-12, RSL3, 1 μM, 24 h
Procedure: In order to identify the protective effect on lung epithelial cells, MLE-12 cells were divided into 96-well plates by 5×10^3 and cultured for 18 to 24 hours. The compounds of Examples were diluted to final concentrations of 0.03 and 0. μM, treated in each well, and incubated for 20 minutes. RSL3 was treated to have final concentrations of 1. μM, respectively, and cultured for 24 hours. In order to identify the protective effect of each compound, the degree of LDH extracellular secretion was measured using cytotoxicity LDH assay kit [Dojindo; CK12]. Briefly, at the time when the treatment of the cells with RSL3 for 24 hours is completed, the supernatants containing the cells are taken by 70 μL and transferred to a new 96-well plate. The assay buffer included in the kit is added in an amount of 70 μL/well (the same amount as the sample) thereto, and then the plate is wrapped with a foil and the reaction is performed at room temperature for 15 minutes.

[3] = NIH/3T3, Erastin, 3 μM, compound 0.1 μM
[4] = NIH/3T3, Erastin, 3 μM, compound 1.0 μM
[5] = NIH/3T3, Glutamate, 30 mM, compound 0.1 μM
[6] = NIH/3T3, Glutamate, 30 mM, compound 1.0 μM
[7] = NIH/3T3, RSL3, 3 μM, compound 0.1 μM
[8] = NIH/3T3, RSL3, 3 μM, compound 1.0 μM
[9] = H9C2, Erastin, 1 μM, compound 0.1 μM
[10] = H9C2, Erastin, 1 μM, compound 1.0 μM
[11] = H9C2, Glutamate, 25 mM, compound 0.1 μM
[12] = H9C2, Glutamate, 25 mM, compound 1.0 μM
[13] = H9C2, RSL3, 0.5 μM, compound 0.1 μM
[14] = H9C2, RSL3, 0.5 μM, compound 1.0 μM
[15] = ARPE-19, Erastin, 10 μM, compound 0.03 μM
[16] = ARPE-19, Erastin, 10 μM, compound 0.3 μM
[17] = ARPE-19, RSL3, 0.3 μM, compound 0.03 μM (first RSL3 column)
[18] = ARPE-19, RSL3, 0.3 μM, compound 0.03 μM (second RSL3 column)

| Structure (SMILES) | EC50 (H9C2 cells [1]) | inhibition (%) (NIH/3T3 cells; [3]) | inhibition (%) (NIH/3T3 cells; [4]) | inhibition (%) (NIH/3T3 cells; [5]) | inhibition (%) (NIH/3T3 cells; [6]) | inhibition (%) (NIH/3T3 cells; [7]) | inhibition (%) (NIH/3T3 cells; [8]) | inhibition (%) (H9C2 cells [2]; [9]) | inhibition (%) (H9C2 cells [2]; [10]) | inhibition (%) (H9C2 cells [2]; [11]) | inhibition (%) (H9C2 cells [2]; [12]) | inhibition (%) (H9C2 cells [2]; [13]) | inhibition (%) (H9C2 cells [2]; [14]) | inhibition (%) (ARPE-19 cells; [15]) | inhibition (%) (ARPE-19 cells; [16]) | inhibition (%) (ARPE-19 cells; [17]) | inhibition (%) (ARPE-19 cells; [18]) | inhibition (%) (MLE-12 cells; compound 0.03 μM) | inhibition (%) (MLE-12 cells; compound 0.3 μM) |
| --- | --- | --- | --- | --- | --- | --- | --- | --- | --- | --- | --- | --- | --- | --- | --- | --- | --- | --- | --- |
| COCc1cc(NC2CCOCC2)c2[nH]c(-c3ccccc3)cc2c1 [Example 1, 5-(methoxymethyl)-2-phenyl-N-tetrahydropyran-4-yl-1H-indol-7-amine] | ≤ 300 nM | 99% | 99% | 98% | 97% | 98% | 99% | 100% | 100% | 97% | 98% | 100% | 100% | 100% | 100% | 100% | 100% | 88% | 100% |
| COCc1cc(NC2CCCC2)c2[nH]c(-c3ccccc3)cc2c1 [Example 2, N-cyclopentyl-5-(methoxymethyl)-2-phenyl-1H-indol-7-amine] | ≤ 300 nM | 99% | 100% | 98% | 99% | 100% | 100% | 100% | 100% | 97% | 98% | 100% | 100% | 100% | 100% | 100% | 100% | 84% | 9% |
| COCc1cc(NC2CC[S+]([O-])CC2)c2[nH]c(-c3ccccc3)cc2c1 (stereo not drawn) [Example 14, 5-(methoxymethyl)-N-(1-oxothian-4-yl)-2-phenyl-1H-indol-7-amine] | ≤ 300 nM | 38% | 100% | 97% | 96% | 100% | 100% | 100% | 100% | 97% | 99% | 100% | 100% | 100% | 98% | 82% | 98% | 50% | 100% |
| CCOCc1cc(NC2CCCC2)c2[nH]c(-c3ccccc3)cc2c1 [Example 19, N-cyclopentyl-5-(ethoxymethyl)-2-phenyl-1H-indol-7-amine] | ≤ 300 nM | 100% | 100% | 95% | 97% | 100% | 100% | 100% | 100% | 99% | 100% | 100% | 100% | 99% | 100% | 100% | 100% | 93% | 100% |
| CCOCc1cc(NC2CCOCC2)c2c(c1)c(COC)c(-c1ccccc1)n2C [Example 29, 5-(ethoxymethyl)-3-(methoxymethyl)-1-methyl-2-phenyl-N-(tetrahydro-2H-pyran-4-yl)-1H-indol-7-amine] | 300 to 1000 nM | 0% | 99% | 98% | 97% | 100% | 100% | 1% | 100% | 6% | 95% | 10% | 100% | 22% | 100% | 18% | 100% | 0% | 95% |
| COCCc1cc(NC2CCOCC2)c2[nH]c(-c3ccccc3)cc2c1 [Example 41, 5-(2-methoxyethyl)-2-phenyl-N-(tetrahydro-2H-pyran-4-yl)-1H-indol-7-amine] | ≤ 300 nM | 0% | 0% | 99% | 98% | 100% | 100% | 100% | 100% | 99% | 98% | 100% | 100% | 100% | 100% | 100% | 100% | 95% | 97% |
| CCOC(=O)c1ccc(NC2CCCCC2)c(N)c1 [Ferrostatin-1, reference compound] |  | 0% | 96% | 98% | 98% | 100% | 100% | 100% | 100% | 95% | 97% | 83% | 100% | 96% | 100% | 68% | 100% | 25% | 98% |
